Laboratory results taken from patent US10562908B2, “Ortho substituted phenylpyrazolo- and phenylpyrrolo-pyridazine derivatives having multimodal activity against pain” (priority 2016, dated 2020).
Where two headings read alike, the source gives them in different places.

Key:
[1] = target: T1, human μ-opioid receptor (Homo sapiens, UniProt P35372); experiment: Human μ-opioid receptor radioligand assay ([3H]-DAMGO); type: binding
T1 construct: expressed in transfected cells; host or cells: CHO-K1
T1 sequence (P35372 whole entry): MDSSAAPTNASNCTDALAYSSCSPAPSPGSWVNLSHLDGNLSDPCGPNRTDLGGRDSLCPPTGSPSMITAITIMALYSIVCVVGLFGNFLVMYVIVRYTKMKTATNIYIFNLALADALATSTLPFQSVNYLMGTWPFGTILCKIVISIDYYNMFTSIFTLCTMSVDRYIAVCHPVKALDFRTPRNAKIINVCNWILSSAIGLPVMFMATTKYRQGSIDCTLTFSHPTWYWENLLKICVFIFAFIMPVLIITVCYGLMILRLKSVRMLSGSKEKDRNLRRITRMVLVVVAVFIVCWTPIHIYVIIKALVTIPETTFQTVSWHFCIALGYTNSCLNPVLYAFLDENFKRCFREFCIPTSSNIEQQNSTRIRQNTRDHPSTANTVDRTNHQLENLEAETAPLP
Description: Human μ-Opioid Receptor Radioligand Assay
To investigate binding properties of test compounds to human μ-opioid receptor, transfected CHO-K1 cell membranes and [^3H]-DAMGO (Perkin Elmer, ES-542-C), as the radioligand, were used. The assay was carried out with 20 μg of membrane suspension, 1 nM of [^3H]-DAMGO in either absence or presence of either buffer or 10 μM Naloxone for total and non-specific binding, respectively. Binding buffer contained Tris-HCl 50 mM, MgCl2 5 mM at pH 7.4. Plates were incubated at 27° C. for 60 minutes. After the incubation period, the reaction mix was then transferred to MultiScreen HTS, FC plates (Millipore), filtered and plates were washed 3 times with ice-cold 10 mM Tris-HCL (pH 7.4). Filters were dried and counted at approximately 40% efficiency in a MicroBeta scintillation counter (Perkin-Elmer) using EcoScint liquid scintillation cocktail, preferably, transfected CHO-K1 cell membranes (20 μg) were incubated with 1 nM of [^3H]-DAMGO in assay buffer containing Tris-HCl 50 mM, MgCl2 5 mM at pH 7.4. NBS (non-specific binding) was measured by adding 10 μM Naloxone. The binding of the test compound was measured at five different concentrations. Plates were incubated at 27° C. for 60 minutes. After the incubation period, the reaction mix was then transferred to MultiScreen HTS, FC plates (Millipore), filtered and plates were washed 3 times with ice-cold 10 mM Tris-HCL (pH 7.4). Filters were dried and counted at approximately 40% efficiency in a MicroBeta scintillation counter (Perkin-Elmer) using EcoScint liquid scintillation cocktail.

[2] = target: Human α2δ-1 subunit of Cav2.2 calcium channel (Homo sapiens, UniProt P54289); experiment: Human α2δ-1 subunit of Cav2.2 calcium channel assay ([3H]-Gabapentin); type: binding
Human α2δ-1 subunit of Cav2.2 calcium channel, sequence (P54289 25-1103): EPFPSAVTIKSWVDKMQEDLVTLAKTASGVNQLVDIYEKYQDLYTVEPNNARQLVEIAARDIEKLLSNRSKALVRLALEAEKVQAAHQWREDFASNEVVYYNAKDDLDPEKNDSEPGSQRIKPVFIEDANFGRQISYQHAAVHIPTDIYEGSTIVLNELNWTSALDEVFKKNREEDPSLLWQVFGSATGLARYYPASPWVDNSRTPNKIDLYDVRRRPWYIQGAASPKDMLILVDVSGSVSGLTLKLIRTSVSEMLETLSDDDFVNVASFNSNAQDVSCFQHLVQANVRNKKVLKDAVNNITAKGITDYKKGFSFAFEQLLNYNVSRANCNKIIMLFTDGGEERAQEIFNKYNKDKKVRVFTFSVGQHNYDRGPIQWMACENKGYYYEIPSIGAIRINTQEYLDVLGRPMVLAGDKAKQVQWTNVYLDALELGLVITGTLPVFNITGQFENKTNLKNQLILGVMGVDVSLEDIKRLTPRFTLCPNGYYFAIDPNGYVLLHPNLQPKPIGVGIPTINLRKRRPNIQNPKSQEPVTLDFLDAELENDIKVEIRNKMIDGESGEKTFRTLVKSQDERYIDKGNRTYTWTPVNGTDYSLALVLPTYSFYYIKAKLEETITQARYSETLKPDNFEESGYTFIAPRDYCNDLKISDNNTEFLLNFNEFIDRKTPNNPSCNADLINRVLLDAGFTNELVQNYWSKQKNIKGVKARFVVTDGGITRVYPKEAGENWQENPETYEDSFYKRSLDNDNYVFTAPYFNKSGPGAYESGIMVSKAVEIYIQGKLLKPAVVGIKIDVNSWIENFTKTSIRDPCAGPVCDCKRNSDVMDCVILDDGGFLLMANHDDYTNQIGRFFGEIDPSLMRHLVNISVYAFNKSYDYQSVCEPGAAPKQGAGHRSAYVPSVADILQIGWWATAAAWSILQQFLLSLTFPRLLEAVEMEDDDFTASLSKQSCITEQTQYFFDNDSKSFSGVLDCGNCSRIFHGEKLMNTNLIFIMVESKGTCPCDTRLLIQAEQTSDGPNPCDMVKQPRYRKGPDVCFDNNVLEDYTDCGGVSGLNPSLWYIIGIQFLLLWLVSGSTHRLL
Description: Human α2δ-1 Subunit of Cav2.2 Calcium Channel Assay
Human α2δ-1 enriched membranes (2.5 μg) were incubated with 15 nM of radiolabeled [3H]-Gabapentin in assay buffer containing Hepes-KOH 10 mM, pH 7.4. NSB (non specific binding) was measured by adding 10 μM pregabalin. After 60 min incubation at 27° C., binding reaction was terminated by filtering through Multiscreen GF/C (Millipore) presoaked in 0.5% polyethyleneimine in Vacuum Manifold Station, followed by 3 washes with ice-cold filtration buffer containing 50 mM Tris-HCl, pH 7.4. Filter plates were dried at 60° C. for 1 hour and 30 μl of scintillation cocktail were added to each well before radioactivity reading. Readings were performed in a Trilux 1450 Microbeta radioactive counter (Perkin Elmer), i.e. Human α2δ-1 enriched membranes (2.5 μg) were incubated with 15 nM of radiolabeled [3H]-Gabapentin in assay buffer containing Hepes-KOH 10 mM, pH 7.4. NSB (non specific binding) was measured by adding 10 μM pregabalin. The binding of the test compound was measured at five different concentrations. After 60 min incubation at 27° C., binding reaction was terminated by filtering through Multiscreen GF/C (Millipore) presoaked in 0.5% polyethyleneimine in Vacuum Manifold Station, followed by 3 washes with ice-cold filtration buffer containing 50 mM Tris-HCl, pH 7.4. Filter plates were dried at 60° C. for 1 hour and 30 μl of scintillation cocktail were added to each well before radioactivity reading. Readings were performed in a Trilux 1450 Microbeta radioactive counter (Perkin Elmer).

[3] = transfected CHO-K1 cell membranes, 1 nM [3H]-DAMGO, read-out: Binding μ (Ki)
[4] = human α2δ-1 enriched membranes, 15 nM [3H]-Gabapentin, read-out: Binding α2δ-1 (Ki)

Row | Compound | Ki [1, 3] | Ki [2, 4] | Ki [1] | Ki [2]
1 | Cc1nnc(N(C)C)c2nn(-c3ccccc3OC(CCNCCF)c3ccccc3)c(C)c12 (centres unmarked) [Example 73, 2-(2-(3-((2-Fluoroethyl)amino)-1-phenylpropoxy)phenyl)-N,N,3,4-tetramethyl-2H-pyrazolo[3,4-d]pyridazin-7-amine] |  |  | < 100 nM | 0.5 to 5 µM
2 | Cc1nnc(N(C)C)c2nn(-c3ccccc3OC(CCN(C)C)c3ccccc3)c(C)c12 (centres unmarked) [Example 52, 2-(2-(3-(Dimethylamino)-1-phenylpropoxy)phenyl)-N,N,3,4-tetramethyl-2H-pyrazolo[3,4-d]pyridazin-7-amine] |  |  | 100 to 500 nM | 0.5 to 5 µM
3 | CCNCC[C@H](Oc1ccccc1-n1nc2c(N(C)C)nnc(C)c2c1C)c1ccccc1 [Example 102, (S)-2-(2-(3-(ethylamino)-1-phenylpropoxy)phenyl)-N,N,3,4-tetramethyl-2H-pyrazolo[3,4-d]pyridazin-7-amine] |  |  | > 500 nM | 0.5 to 5 µM
4 | CCOc1ccc(-n2nc3c(N(C)C)nnc(C)c3c2C)c(OC(CCNC)c2ccccc2)c1 (centres unmarked) [Example 87, 2-(4-Ethoxy-2-(3-(methylamino)-1-phenylpropoxy)phenyl)-N,N,3,4-tetramethyl-2H-pyrazolo[3,4-d]pyridazin-7-amine] |  |  | > 500 nM | < 0.5 µM
5 | CNCCC(Oc1cc(C(=O)N(C)C)ccc1-n1nc2c(N(C)C)nnc(C)c2c1C)c1ccccc1 (centres unmarked) [Example 95] | > 500 nM | 0.5 to 5 µM |  | 
6 | CNCCC(Oc1ccc(N2CCCC2=O)cc1-n1nc2c(N(C)C)nnc(C)c2c1C)c1ccccc1 (centres unmarked) [Example 81, 1-(3-(7-(dimethylamino)-3,4-dimethyl-2H-pyrazolo[3,4-d]pyridazin-2-yl)-4-(3-(methylamino)-1-phenylpropoxy)phenyl)pyrrolidin-2-one] | > 500 nM | > 5 µM |  | 
7 | CNCCC(Oc1ccc(OC)cc1-n1nc2c(N(C)C)nnc(C)c2c1C)c1ccccc1 (centres unmarked) [Example 88, 2-(5-methoxy-2-(3-(methylamino)-1-phenylpropoxy)phenyl)-N,N,3,4-tetramethyl-2H-pyrazolo[3,4-d]pyridazin-7-amine] | > 500 nM | 0.5 to 5 µM |  | 
8 | CNCC[C@H](Oc1ccccc1-n1nc2c(N(C)C)nnc(C)c2c1C)c1ccccc1 [Example 99, (S)-N,N,3,4-Tetramethyl-2-(2-(3-(methylamino)-1-phenylpropoxy)phenyl)-2H-pyrazolo[3,4-d]pyridazin-7-amine] |  |  | 100 to 500 nM | 0.5 to 5 µM
9 | Cc1nnc(N(C)C)c2nn(-c3ccccc3OC3CCNCC3)c(C)c12 [Example 13, N,N,3,4-tetramethyl-2-(2-(piperidin-4-yloxy)phenyl)-2H-pyrazolo[3,4-d]pyridazin-7-amine] | > 500 nM | > 5 µM |  | 
10 | CNCC[C@H](Oc1ccccc1-n1nc2c(N(C)C)nnc(C)c2c1C)c1cccc(F)c1 [Example 103, (S)-2-(2-(1-(3-Fluorophenyl)-3-(methylamino)propoxy)phenyl)-N,N,3,4-tetramethyl-2H-pyrazolo[3,4-d]pyridazin-7-amine] |  |  | > 500 nM | < 0.5 µM
11 | CNCCC(Oc1ccccc1-n1nc2c(N(C)C)nnc(C)c2c1C)c1nccs1 (centres unmarked) [Example 33, N,N,3,4-tetramethyl-2-(2-(3-(methylamino)-1-(thiazol-2-yl)propoxy)phenyl)-2H-pyrazolo[3,4-d]pyridazin-7-amine] | > 500 nM | 0.5 to 5 µM |  | 
12 | CNCCC(Oc1ccc(C#N)cc1-n1nc2c(N(C)C)nnc(C)c2c1C)c1ccccc1 (centres unmarked) [Example 86, 3-(7-(dimethylamino)-3,4-dimethyl-2H-pyrazolo[3,4-d]pyridazin-2-yl)-4-(3-(methylamino)-1-phenylpropoxy)benzonitrile] | > 500 nM | > 5 µM |  | 

Further lines, with some results ahead:

Row | Ki [1, 3] | Ki [2, 4] | Compound | Ki [1] | Ki [2]
13 | > 500 nM | 0.5 to 5 µM | Cc1nnc(N(C)C)c2nn(-c3ccccc3OCCCNCCc3ccccc3)c(C)c12 [Example 31, N,N,3,4-tetramethyl-2-(2-(3-(phenethylamino)propoxy)phenyl)-2H-pyrazolo[3,4-d]pyridazin-7-amine] |  | 
14 | > 500 nM | > 5 µM | Cc1nnc(N(C)C)c2nn(-c3ccccc3OC(CCN(C)Cc3ccccc3)Cc3ccccc3)c(C)c12 (centres unmarked) [Example 75, 2-(2-((4-(benzyl(methyl)amino)-1-phenylbutan-2-yl)oxy)phenyl)-N,N,3,4-tetramethyl-2H-pyrazolo[3,4-d]pyridazin-7-amine] |  | 
15 | > 500 nM | 0.5 to 5 µM | Cc1nnc(N(C)C)c2nn(-c3ccccc3OCCC(N)c3ccccc3)c(C)c12 (centres unmarked) [Example 22, 2-(2-(3-amino-3-phenylpropoxy)phenyl)-N,N,3,4-tetramethyl-2H-pyrazolo[3,4-d]pyridazin-7-amine] |  | 
16 | > 500 nM | 0.5 to 5 µM | CNCCC(Oc1ccccc1-n1nc2c(N(C)C)nnc(C)c2c1C)c1cccc(NC(C)=O)c1 (centres unmarked) [Example 84, N-(3-(1-(2-(7-(dimethylamino)-3,4-dimethyl-2H-pyrazolo[3,4-d]pyridazin-2-yl)phenoxy)-3-(methylamino)propyl)phenyl)acetamide] |  | 
17 | > 500 nM | 0.5 to 5 µM | CNCCC(Oc1ccccc1-n1nc2c(N(C)CCCO)nnc(C)c2c1C)c1ccccc1 (centres unmarked) [Example 61, 3-((3,4-dimethyl-2-(2-(3-(methylamino)-1-phenylpropoxy)phenyl)-2H-pyrazolo[3,4-d]pyridazin-7-yl)(methyl)amino)propan-1-ol] |  | 
18 | > 500 nM | 0.5 to 5 µM | CNCC(Cc1ccccc1)Oc1ccccc1-n1nc2c(N(C)C)nnc(C)c2c1C (centres unmarked) [Example 76, N,N,3,4-Tetramethyl-2-(2-((1-(methylamino)-3-phenylpropan-2-yl)oxy)phenyl)-2H-pyrazolo[3,4-d]pyridazin-7-amine] |  | 
19 | > 500 nM | > 5 µM | CNCCC(COC)Oc1ccccc1-n1nc2c(N(C)C)nnc(C)c2c1C (centres unmarked) [Example 51, 2-(2-((1-methoxy-4-(methylamino)butan-2-yl)oxy)phenyl)-N,N,3,4-tetramethyl-2H-pyrazolo[3,4-d]pyridazin-7-amine] |  | 
20 | > 500 nM | 0.5 to 5 µM | CNCCC(Oc1ccccc1-n1nc2c(N(C)CCN(C)C)nnc(C)c2c1C)c1ccccc1 (centres unmarked) [Example 62, N1-(3,4-dimethyl-2-(2-(3-(methylamino)-1-phenylpropoxy)phenyl)-2H-pyrazolo[3,4-d]pyridazin-7-yl)-N1,N2,N2-trimethylethane-1,2-diamine] |  | 
21 | > 500 nM | 0.5 to 5 µM | CNCCC(Oc1ccccc1-n1nc2c(N(C)C)nnc(C)c2c1C)c1ccccn1 (centres unmarked) [Example 18, N,N,3,4-tetramethyl-2-(2-(3-(methylamino)-1-(pyridin-2-yl)propoxy)phenyl)-2H-pyrazolo[3,4-d]pyridazin-7-amine] |  | 
22 | > 500 nM | > 5 µM | CNCCC(Oc1ccccc1-n1nc2c(C)nnc(C)c2c1C)c1ccccc1 (centres unmarked) [Example 69, N-methyl-3-phenyl-3-(2-(3,4,7-trimethyl-2H-pyrazolo[3,4-d]pyridazin-2-yl)phenoxy)propan-1-amine] |  | 
23 | > 500 nM | 0.5 to 5 µM | CNCc1cccc(COc2ccccc2-n2nc3c(N(C)C)nnc(C)c3c2C)c1 [Example 45, N,N,3,4-tetramethyl-2-(2-((3-((methylamino)methyl)benzyl)oxy)phenyl)-2H-pyrazolo[3,4-d]pyridazin-7-amine] |  | 
24 | > 500 nM | 0.5 to 5 µM | Cc1nnc(N(C)C)c2nn(-c3ccccc3OC(C)CCNCc3ccccc3)c(C)c12 (centres unmarked) [Example 12, 2-(2-((4-(benzylamino)butan-2-yl)oxy)phenyl)-N,N,3,4-tetramethyl-2H-pyrazolo[3,4-d]pyridazin-7-amine] |  | 
25 | > 500 nM | 0.5 to 5 µM | Cc1nnc(N(C)C)c2nn(-c3ccccc3OC3CCN(Cc4ccccc4)C3)c(C)c12 (centres unmarked) [Example 8, 2-(2-((1-benzylpyrrolidin-3-yl)oxy)phenyl)-N,N,3,4-tetramethyl-2H-pyrazolo[3,4-d]pyridazin-7-amine] |  | 
